experiment: Human HepG2 cell viability assay in 384 well format; type: toxicity, cell-based; parameters: dose 125 nL, time 70.5 hour; concentration not given beside the values; settings: HepG2 cells, read-out: Inhibition

Row | SMILES | cytotoxicity at 70.5 h [%]
1 | CC(C)c1nc(CN2CCCC(Cn3cncn3)C2)cs1 (configuration not stated) | 29.1
2 | Cc1cccc(OCCNC(=O)CN2CCN(C)CC2C)c1 (configuration not stated) | 25.2
3 | CC(=O)Nc1nc(C(=O)N2CCCC(c3cc(C)[nH]n3)C2)cs1 (configuration not stated) | -0.899
4 | Cc1ccc(CN2CCCN(Cc3cscn3)CC2)cc1 | 3.58
5 | Cc1ncsc1C(=O)NC1CCN(CCCC#N)CC1 | -1.22
6 | CN1CC(=O)N(c2ccsc2)CC12CCN(S(=O)(=O)C1CC1)C2 (configuration not stated) | -96.5
7 | O=C(c1ccccn1)N1CCCN(Cc2nnc(C3CC3)o2)CC1 | -9.21
8 | COCCCN1CCN(C(=O)C(c2cccc(F)c2)N(C)C)CC1 (configuration not stated) | -5.78
9 | CC(CC(=O)NCCCn1cccn1)c1cccnc1 (configuration not stated) | -6.56
10 | CS(=O)(=O)c1ccc(NC(=O)CSc2ccc3c(c2)CCC3)cc1 | 1.38
11 | N#Cc1cccc(NC2CC(=O)N(Cc3ccccc3Cl)C2)n1 (configuration not stated) | 18.9
12 | NC(=O)c1cnn2c(C3CCN(CCO)CC3)ccnc12 | -3.75
13 | Cc1cccnc1CC(C)NC1Cc2ccccc2C1 (configuration not stated) | 5.92
14 | c1cnc(N2CCC3(COCc4cnc(N5CCOCC5)nc43)C2)nc1 (configuration not stated) | -16.6
15 | CC(NC(=O)C1=NN(C)C(=O)CC1)c1cccc(Cl)c1 (configuration not stated) | -85.8
16 | Cn1c(Cn2cccn2)nnc1C1CCCN(c2ccncc2F)C1 (configuration not stated) | 3.69
17 | COc1cccc(OCc2nnc3n2N=C(C(C)(C)C)CS3)c1 | -8.92
18 | N#Cc1cccc(CN2CC[C@@H]3[C@@H]2CC(=O)N3Cc2ccncc2)c1 | -3.67
19 | CCNc1ccc(-c2ccnc3c2ccn3C)nn1 | -5.15

Row | SMILES | cytotoxicity at 70.5 h [%]
20 | CC(=O)N1N=C(c2cccs2)OC1C(=O)NCc1ccc(C)o1 (configuration not stated) | -1.09
21 | Cc1cc(NC(=O)CNc2ccc(Br)cc2F)on1 | 2.93
22 | Cc1noc(C)c1CS(=O)(=O)CC(=O)NCCc1cccs1 | 15.1
23 | CN1CCC(CCc2ccnc(Nc3cnccn3)c2)CC1 | -4.49
24 | CCS(=O)(=O)NC(CCSC)C(=O)Nc1cc(F)ccc1C (configuration not stated) | -36.1
25 | O=C(Cc1cc(-c2ccc3c(c2)OCCO3)on1)NCc1ccccn1 | -10.7
26 | COCCN1CCOCC12CCN(Cc1ccn(C)n1)CC2 | -5.01
27 | Cc1[nH]c2nc(CNc3cccc(Cl)c3)nn2c(=O)c1C | -11.7
28 | Cc1cccc(-c2ccc(C(=O)NCC3CCCOC3)c(=O)[nH]2)c1 (configuration not stated) | -9.36
29 | c1cc(CN2CCC3(CC2)COC(COCC2CC2)C3)cs1 (configuration not stated) | -6.27
30 | CC(Nc1ncnc2c1CCNC2)c1ccc(C(C)(C)C)cc1 (configuration not stated) | 2.81
31 | CC(C)[C@H](C)NC1CCN(c2ccc(-c3cscn3)cc2)CC1 | -14.3
32 | c1cc(COC[C@]23COC[C@H]2CN(CC2CCC2)C3)ccn1 | -11.8
33 | CCn1cncc1C1CC(=O)Nc2c1c(C)nn2C (configuration not stated) | -4.74
34 | Cc1n[nH]c(C2CN(Cc3ncc(C(C)C)o3)CCO2)n1 (configuration not stated) | 0.362
35 | N#Cc1ccc(N2CCCC3(CCN(c4cncnc4)C3=O)C2)nc1 (configuration not stated) | 7.49
36 | CN(CCc1ccncc1)CCc1nccs1 | -12.8
37 | Cc1ccc(OCCN(C)Cc2ccc(S(=O)(=O)N(C)C)o2)cc1 | -5.02
38 | Cc1noc(C)c1S(=O)(=O)N(CC(N)=O)CC(C)C | -20.2

Row | SMILES | cytotoxicity at 70.5 h [%]
39 | c1ccc(CN2CC[C@@H]3O[C@@H](COCCN4CCCC4)CC[C@@H]32)nc1 | -13.6
40 | CC(C)(C)SCCNC(=O)[C@@]12CNC[C@@H]1CN(S(C)(=O)=O)C2 | -2.8
41 | O=C(NCCc1cccs1)[C@H]1CO[C@H]2CCNC[C@H]2C1 | -15
42 | CC(C)CN(C(=O)Nc1cccnc1)C1CC1 | -7.03
43 | CN(CCc1ccncc1)C1CCCN(Cc2noc(C3CC3)n2)C1 (configuration not stated) | -2.71
44 | CCCn1[nH]cc/c1=N\C(=O)CN1CCCC1Cn1cc(C)cn1 (configuration not stated) | -4.99
45 | COC(=O)CNC(=O)c1cn(-c2ccccn2)c(=O)c2ccccc12 | -9.1
46 | COCCCC(=O)N1CCC(Nc2cccnn2)CC1 | -10.4
47 | Cc1nc(CNC(=O)NC2CCN(c3cccc(Cl)c3)C2)no1 (configuration not stated) | -1.4
48 | O=C(NCc1cccnc1)[C@@H]1C[C@@H]2CCN(c3ncc(F)cn3)C[C@@H]2O1 | -12.2
49 | Cc1cc(NCCNS(=O)(=O)c2cn(C)nc2C)c2ccccc2n1 | 13.5
50 | COc1ccc(-c2nccnc2C2CCN(C(C)=O)CC2)cc1 | 19.6
51 | CC(CO)NC(=O)Nc1ccc(S(C)(=O)=O)nc1 (configuration not stated) | -2.27
52 | O=C(c1ccc2c(c1)CCC2)N1CCCCC1C1OCCO1 (configuration not stated) | -7.93
53 | CNC(=O)c1cn[nH]c1C1CCN(Cc2cccc(C)c2OC)C1 (configuration not stated) | -3.82
54 | COCc1nn(C(C)C)c2c1CCN(Cc1cccs1)C2 | -6.03
55 | NC(=O)CN1CCC(c2cncc(-c3cccc(Cl)c3)n2)CC1 | 15.3
56 | O=C1NCc2ccccc2CC12CCCN(CCCc1ccccc1)C2 (configuration not stated) | -3.38
57 | COc1ccc(Oc2ccc(CNC(=O)C3CCS(=O)(=O)C3)cn2)cc1 (configuration not stated) | -6.05
